According to patent US20240410877A1, “SYSTEMS AND METHODS FOR MIXED MULTIPLE CELL LINE SCREENING USING ENDOGENOUS SINGLE NUCLEOTIDE POLYMORPHISM (SNP)-BASED CELL LINE IDENTIFICATION” (University of Kentucky Research Foundation, priority 2023, published 2024):

How the values were obtained:
Format in all cases: cell-based, human
SNU449 = assay: Cell proliferation assay of single cell line; details: SNU449, 1 μM, 30 h
Protocol: (§1) The liver cancer cell lines, Huh7, C3A, PLC/PRF/5, SNU449, SNU475 and SK-Hep1, were purchased from the American Type Culture Collection (ATCC). The cells were cultured in DMEM (ATCC®30-2002) containing 10% (v/v) Fetal Bovine Serum (FBS) (Sigma F0926) and grown in an incubator at 37° C. with 5% CO2. The halogenated diarylacetylene, 4-((2,6-difluorophenyl) ethynyl)-N,N-dimethylaniline (DEDA), was synthesized and characterized as previously described.^18,19
(§2) For proliferation assays of single cell line, cells were seeded in 12-well plates (2×10^5 cells per well) and incubated overnight. The following day, DEDA (1 μM solution in DMSO) was added to each well with DMSO alone as a control. Each experiment was performed in quadruplicate. After 30 h, cells were analyzed under a reverse microscope. Cell viability and number were analyzed using the Vi-Cell XR Cell Viability Analyzer (Beckman Coulter).

PLC/PRF/5 = assay: Cell proliferation assay of single cell line; details: PLC/PRF/5, 1 μM, 30 h
Protocol: as §1, §2

SK-Hep1 = assay: Cell proliferation assay of single cell line; details: SK-Hep1, 1 μM, 30 h
Protocol: as §1, §2

C3A = assay: Cell proliferation assay of single cell line; details: 1 μM, 30 h
Protocol: as §1, §2

Huh7 = assay: Cell proliferation assay of single cell line; details: Huh7, 1 μM, 30 h
Protocol: as §1, §2

SNU475 = assay: Cell proliferation assay of single cell line; details: SNU475, 1 μM, 30 h
Protocol: as §1, §2

c-Myc = assay: Western blot of c-Myc expression in liver cancer cells; details: C3A cells, 1 μM DEDA vs DMSO
Protocol: Cells were grown in six-well plates and lysed in 0.5 mL/well lysis buffer (50 mM HEPES, 100 mM NaCl, 2 mM EDTA, 1% glycerol, 50 mM NaF, 1 mM Na3VO4, 1% Triton X-100, with protease inhibitors). Cell lysates were separated by a 10% SDS-PAGE gel and transferred to an Immobilon PVDF membrane. The protein levels of c-Myc and GAPDH (loading control) were analyzed using antibodies that recognize c-Myc (Epitomics, #1472-1) and GAPDH (GeneTex, #627408).

Structure (SMILES): CN(C)c1ccc(C#Cc2c(F)cccc2F)cc1 [DEDA, 4-((2,6-difluorophenyl)ethynyl)-N,N-dimethylaniline]
- sensitivity in cell proliferation assay (SNU449): resistant
- sensitivity in cell proliferation assay (PLC/PRF/5): resistant
- sensitivity in cell proliferation assay (SK-Hep1): resistant
- sensitivity in cell proliferation assay (C3A): DEDA-sensitive
- sensitivity in cell proliferation assay (Huh7): DEDA-sensitive
- sensitivity in cell proliferation assay (SNU475): resistant
- c-Myc expression (c-Myc): inhibited c-Myc expression
